Reference: patent US20100311749A1, “4-BENZOYL-1-SUBSTITUTED-PIPERAZIN-2-ONE DERIVATIVES AS P2X7 MODULATORS” (priority 2007, published 2010)

Biological target: T1, human P2X7 receptor (Homo sapiens, UniProt Q99572)
T1 construct: expressed in transfected cells
T1 sequence (Q99572 1-595): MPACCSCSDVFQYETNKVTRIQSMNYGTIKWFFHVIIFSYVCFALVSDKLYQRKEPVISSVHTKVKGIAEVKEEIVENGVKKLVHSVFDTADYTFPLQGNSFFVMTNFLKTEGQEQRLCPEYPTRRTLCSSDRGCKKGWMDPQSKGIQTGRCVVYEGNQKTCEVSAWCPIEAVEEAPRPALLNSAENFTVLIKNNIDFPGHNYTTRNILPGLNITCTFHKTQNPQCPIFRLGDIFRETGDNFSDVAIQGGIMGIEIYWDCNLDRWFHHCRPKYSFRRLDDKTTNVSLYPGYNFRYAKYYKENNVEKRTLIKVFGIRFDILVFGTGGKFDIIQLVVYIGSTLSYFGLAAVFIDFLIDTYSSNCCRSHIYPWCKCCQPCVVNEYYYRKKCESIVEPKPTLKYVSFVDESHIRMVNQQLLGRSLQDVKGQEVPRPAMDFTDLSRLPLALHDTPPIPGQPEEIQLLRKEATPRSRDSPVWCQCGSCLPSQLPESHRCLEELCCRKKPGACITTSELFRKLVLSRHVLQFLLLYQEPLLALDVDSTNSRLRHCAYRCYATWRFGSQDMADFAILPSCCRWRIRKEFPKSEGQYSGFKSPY
Experiment: Ethidium Accumulation Assay
Assay type: cell-based
Settings: HEK293 cells stably expressing human recombinant P2X7 receptors; 1 mM ATP; values given as 'about'; read-out: pIC50 for human P2X7 receptor antagonist activity (blocking ATP responses) in the Ethidium Accumulation Assay (converted)
Method: Studies were performed using NaCl assay buffer of the following composition: 140 mM NaCl, 10 mM HEPES [4-(2-hydroxyethyl)-1-piperazine-1-ethanesulfonic acid], 5 mM N-methyl-D-glucamine, 5.6 mM KCl, 10 mM D-glucose, 0.5 mM CaCl2 (pH 7.4).
Human Embryonic Kidney (HEK) 293 cells, stably expressing human recombinant P2X7 receptors, were grown in poly-D-lysine pre-treated 96 well plates for 18-24 hours. […] The cells were washed twice with 350 μl of the assay buffer, before addition of 50 μl of the assay buffer containing the putative P2X7 receptor antagonist compound. (A small amount of dimethyl sulfoxide, for initially dissolving the compound, is optionally used and present in this 50 μl test compound sample.) The cells were then incubated at room temperature (19-21° C.) for 30 min before addition of ATP and ethidium (100 μM final assay concentration). The ATP concentration was chosen to be close to the EC80 for the receptor type and was 1 mM for studies on the human P2X7 receptor. Incubations were continued for 8 or 16 min and were terminated by addition of 25 μl of 1.3M sucrose containing 4 mM of the P2X7 receptor antagonist Reactive Black 5 (Aldrich). […] Antagonist pIC50 values for blocking ATP responses were determined using iterative curve fitting techniques.

Row | Compound | IC50 [nM]
1 | Cc1ccc(-c2cccc(N3CCN(C(=O)c4cccc(C(F)(F)F)c4Cl)CC3=O)c2C)cn1 [Example 84, 4-{[2-chloro-3-(trifluoromethyl)phenyl]carbonyl}-1-[2-methyl-3-(6-methyl-3-pyridinyl)phenyl]-2-piperazinone] | 2.51 to 100
2 | O=C(c1cccc(C(F)(F)F)c1F)N1CCN(c2ccc(F)cc2Cl)C(=O)C1 [Example 56, 1-(2-chloro-4-fluorophenyl)-4-{[2-fluoro-3-(trifluoromethyl)phenyl]carbonyl}-2-piperazinone] | 2.51 to 100
3 | O=C1CN(C(=O)c2cccc(C(F)(F)F)c2Cl)CCN1CC1CC1 [Example 48, 4-{[2-chloro-3-(trifluoromethyl)phenyl]carbonyl}-1-(cyclopropylmethyl)-2-piperazinone] | 2.51 to 100
4 | O=C(c1cccc(Cl)c1Cl)N1CCN(c2ccc(F)cc2F)C(=O)C1 [Example 19, 4-[(2,3-Dichlorophenyl)carbonyl]-1-(2,4-difluorophenyl)-2-piperazinone] | 5.01 to 200
5 | Cc1ccc(N2CCC(O)C2)cc1N1CCN(C(=O)c2cccc(C(F)(F)F)c2Cl)CC1=O (stereo not shown) [Example 83, 4-{[2-chloro-3-(trifluoromethyl)phenyl]carbonyl}-1-[5-(3-hydroxy-1-pyrrolidinyl)-2-methylphenyl]-2-piperazinone] | 2.51 to 100
6 | Cc1cc(F)c(Br)cc1N1CCN(C(=O)c2cccc(C(F)(F)F)c2Cl)CC1=O [Example 45, 1-(5-bromo-4-fluoro-2-methylphenyl)-4-{[2-chloro-3-(trifluoromethyl)phenyl]carbonyl}-2-piperazinone] | 2.51 to 100
7 | CC(C)c1ccccc1N1CCN(C(=O)c2ccc(F)cc2Cl)CC1=O [Example 26, 4-[(2-chloro-4-fluorophenyl)carbonyl]-1-[2-(1-methylethyl)phenyl]-2-piperazinone] | 2.51 to 100
8 | Cc1cccc(C(=O)N2CCN(c3ccc(F)cc3Cl)C(=O)C2)c1Cl [Example 30, 1-(2-chloro-4-fluorophenyl)-4-[(2-chloro-3-methylphenyl)carbonyl]-2-piperazinone] | 2.51 to 100
9 | Cc1ccccc1N1CCN(C(=O)c2cccc(C(F)(F)F)c2Cl)CC1=O [Example 1, 4-{[2-Chloro-3-(trifluoromethyl)phenyl]carbonyl}-1-(2-methylphenyl)-2-piperazinone] | 5.01 to 200
10 | O=C(c1ccc(F)c(F)c1Cl)N1CCN(c2ccc(F)cc2Cl)C(=O)C1 [Example 32, 4-[(2-chloro-3,4-difluorophenyl)carbonyl]-1-(2-chloro-4-fluorophenyl)-2-piperazinone] | 2.51 to 100
11 | CCN1CCN(C(=O)c2cccc(Cl)c2Cl)CC1=O [Example 17, 4-[(2,3-Dichlorophenyl)carbonyl]-1-ethyl-2-piperazinone] | 5.01 to 200

The next lines start with the values.

Row | IC50 [nM] | Compound
12 | 2.51 to 100 | Cc1c(N2CCOCC2)cccc1N1CCN(C(=O)c2c(Cl)cc(Cl)cc2Cl)CC1=O [Example 82, 1-[2-methyl-3-(4-morpholinyl)phenyl]-4-[(2,4,6-trichlorophenyl)carbonyl]-2-piperazinone]
13 | 5.01 to 200 | O=C(c1ccc(Cl)cc1Cl)N1CCN(c2ccccc2Cl)C(=O)C1 [Example 8, 1-(2-Chlorophenyl)-4-[(2,4-dichlorophenyl)carbonyl]-2-piperazinone]
14 | 2.51 to 100 | O=C(c1cccc(C(F)(F)F)c1Cl)N1CCN(c2cc(N3CCOCC3)ccc2Cl)C(=O)C1 [Example 78, 1-[2-chloro-5-(4-morpholinyl)phenyl]-4-{[2-chloro-3-(trifluoromethyl)phenyl]-carbonyl}-2-piperazinone]
15 | 2.51 to 100 | Cc1ccc(N2CCOCC2)cc1N1CCN(C(=O)c2cccc(Cl)c2Cl)CC1=O [Example 54, 4-[(2,3-dichlorophenyl)carbonyl]-1-[2-methyl-5-(4-morpholinyl)phenyl]-2-piperazinone]
16 | 2.51 to 100 | O=C(c1cccc(C(F)(F)F)c1Cl)N1CCN(c2cccc(N3CCOCC3)c2Cl)C(=O)C1 [Example 79, 1-[2-chloro-3-(4-morpholinyl)phenyl]-4-{[2-chloro-3-(trifluoromethyl)phenyl]carbonyl}-2-piperazinone]
